The values that follow come from patent US20230339900A1, “CASEIN KINASE 1 DELTA MODULATORS” (Janssen Pharmaceutica NV, priority 2020, published 2023).

Experiment [1] has as its target human recombinant GST cleaved CSNK1D (Homo sapiens (Human), UniProt P48730). Kind of experiment: Purified enzyme assay (ADP-Glo Kinase Assay). The class given is biochemical. The conditions noted are these: 2 nM CSNK1D, peptide substrate 150 μM, ATP 20 μM, 45 minutes room temperature. The protocol: In this assay, CSNK1D phosphorylates a substrate peptide PLSRTL-pS-VASLPGL in the presence of ATP. […] This assay monitors CSNK1D kinase activity by measuring the amount of ADP produced in the assay. A substrate mix is prepared by diluting peptide substrate (final concentration 150 μM) with ATP (final concentration 20 μM) in assay buffer (50 mM Tris/HCl pH 7.4+10 mM MgCl2+1 mM DTT+0.1% BSA). The substrate mix is added to each well of a low volume, 384-well, white opaque plate. Test compounds were diluted in HBSS and added in a dose-response to the plate. To start the reaction, 2 nM of constitutively active human recombinant GST cleaved CSNK1D (University of Dundee, clone DU 19064, stored at 0.28 mg/mL in 50 mM Tris/HCl pH 7.5, 150 mM NaCl, 270 mM Sucrose, 0.1 mM EGTA, 0.1% 2-mercaptoethanol, 0.02% Brij-35.1 mM benzamidine, 0.2 mM PMSF) was added to each well and the plate centrifuged for 5 minutes at 1500 rpm. The total volume of each reaction is 5 ul (2 μL of substrate mix, 1 μL of diluted compounds, and 2 μL of human recombinant CSNK1D). The plates are incubated for 45 minutes at room temperature.
ADP was quantified using the ADP-Glo™ Kinase Assay. ADP-Glo Reagent (5 μL) was added to each well. After a 1 hour incubation at room temperature, Kinase Detection Reagent (10 μL) was added to each well and incubated for 30 minutes. Luminescence was measured on the Perkin Elmer Wallac EnVision 2104 Multi-label Reader. The raw data from the Envision is used to calculate percent activity.
For orientation: ADP-Glo turns the ADP formed in a reaction into a luminescent signal.

Experiment [2] deals with human CSNK1D tagged with nanoluciferase (Homo sapiens (Human), UniProt P48730). Put plainly: Whole Cell nBRET CSNK1D Binding Assay. Conditions: living CHO cells stably expressing human CSNK1D-nanoluciferase; NanoBret tracer 130 nM; 2 hours 37° C.; read-out: CSNK1D BRET IC50. As for the experimental part:
This cellular binding assay uses a bioluminescence resonance energy transfer to measure human CSNK1D binding activity in living Chinese Hamster Ovary (CHO) cells that are stably expressing human CSNK1D tagged with nanoluciferase. The cells were grown to confluency in growth media (DMEM:F12, 50 u/mLPen/Strep, […] glutamine, and 0.6 mg/mL G418) in 10 cm^2 dishes. Cells were seeded onto white, opaque 384-well plates (Corning, cat #3704) at a density of 8,000 cells/well in serum-free OptiMEM and left to incubated overnight at 37° C., […]. The next day, test compounds were added in a dose response to the plate followed by a NanoBret tracer (130 nM). The plate is mixed on an orbital shaker for 30 seconds, then placed in a 37° C. incubator for 2 hours. NanoBret Nano-Glo Substrate solution (20 μL) is added to all wells and incubated for 3 minutes at room temperature. Donor (450 nm) and acceptor (630 nm) emissions are then measured within 10 minutes using a ClarioStar plate reader. The data is used to calculate millibret units, defined as (E630/E450)*1000. Bret emissions are then graphed against the log of compound concentrations and these graphs are used to determine the IC50 of each compound.
(In general: BRET reads energy transfer from a luciferase to a nearby fluorophore.)

human recombinant GST cleaved CSNK1D, sequence (P48730 whole entry): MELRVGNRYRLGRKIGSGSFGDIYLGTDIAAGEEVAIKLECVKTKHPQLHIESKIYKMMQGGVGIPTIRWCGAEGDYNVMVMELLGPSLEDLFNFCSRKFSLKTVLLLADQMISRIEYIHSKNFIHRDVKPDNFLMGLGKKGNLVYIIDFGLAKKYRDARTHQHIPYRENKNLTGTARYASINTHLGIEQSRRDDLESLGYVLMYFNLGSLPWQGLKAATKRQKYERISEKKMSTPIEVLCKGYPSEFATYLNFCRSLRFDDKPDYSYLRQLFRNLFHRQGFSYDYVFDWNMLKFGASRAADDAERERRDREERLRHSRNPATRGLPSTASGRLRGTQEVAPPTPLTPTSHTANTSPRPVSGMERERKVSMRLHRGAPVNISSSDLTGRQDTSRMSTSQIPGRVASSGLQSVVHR
human CSNK1D tagged with nanoluciferase, sequence (P48730 whole entry): as above

For `Cc1cc(-c2cn(C)nc2-c2ccc(Cl)cn2)c2cn[nH]c2n1` [Example 26, 4-(3-(5-Chloropyridin-2-yl)-1-methyl-1H-pyrazol-4-yl)-6-methyl-1H-pyrazolo[3,4-b]pyridine], in experiment [1], the AC50 (usually the midpoint of the concentration-response curve, whichever way the signal moves) was 58 nM. Further, the concentration for half-maximal inhibition (IC50) (in general, the concentration needed to halve the response being measured) in experiment [2] turned out to be 2090 nM.

For `Cn1cc(-c2ccnc3[nH]ccc23)c(-c2cc(F)ccn2)n1` [Example 27, 4-[3-(4-Fluoro-2-pyridyl)-1-methyl-pyrazol-4-yl]-1H-pyrrolo[2,3-b]pyridine], the AC50 in experiment [1] turned out to be 4 nM. In addition, the half-maximal inhibitory concentration (IC50) in experiment [2] was 178 nM.

Regarding `Cn1cc(-c2ccnc3[nH]ccc23)c(-c2ccc(F)nc2)n1` [Example 28, 4-[3-(6-Fluoro-3-pyridyl)-1-methyl-pyrazol-4-yl]-1H-pyrrolo[2,3-b]pyridine], the AC50 in experiment [1] was found to be 8 nM. For the same molecule, in experiment [2], the IC50 was found to be 165 nM.

Turning to `Cn1cc(-c2ccnc3[nH]ccc23)c(-c2cccc(F)n2)n1` [Example 29, 4-[3-(6-Fluoro-2-pyridyl)-1-methyl-pyrazol-4-yl]-1H-pyrrolo[2,3-b]pyridine], the AC50 in experiment [1] turned out to be 7 nM. For the same molecule, the half-maximal inhibitory concentration (IC50) in experiment [2] was 186 nM.

Regarding `Cc1cccc(-c2nn(C)cc2-c2cc(C)nc3[nH]ncc23)n1` [Example 30, 6-Methyl-4-(1-methyl-3-(6-methylpyridin-2-yl)-1H-pyrazol-4-yl)-1H-pyrazolo[3,4-b]pyridine], in experiment [1], the half-maximal activity concentration (AC50) was determined as 24 nM. For the same molecule, the concentration for half-maximal inhibition (IC50) in experiment [2] worked out at 388 nM.

As to `Cc1ccc(-c2nn(C)cc2-c2ccnc3[nH]ccc23)nc1` [Example 31, 4-[1-Methyl-3-(5-methyl-2-pyridyl)pyrazol-4-yl]-1H-pyrrolo[2,3-b]pyridine], the half-maximal activity concentration (AC50) in experiment [1] was determined as 50 nM. In addition, in experiment [2], the concentration for half-maximal inhibition (IC50) worked out at 3120 nM.

As to `Cc1ccc(-c2nn(C)cc2-c2ccnc3[nH]ncc23)nc1` [Example 32, 4-(1-Methyl-3-(5-methylpyridin-2-yl)-1H-pyrazol-4-yl)-1H-pyrazolo[3,4-b]pyridine], in experiment [1], the half-maximal activity concentration (AC50) is 128 nM. Moreover, in experiment [2], the half-inhibitory concentration (IC50) amounted to 8940 nM.

On to `Cn1cc(-c2ccnc3[nH]ncc23)c(-c2ccc(C(F)F)cn2)n1` [Example 33, 4-(3-(5-(Difluoromethyl)pyridin-2-yl)-1-methyl-1H-pyrazol-4-yl)-1H-pyrazolo[3,4-b]pyridine], for which the concentration at half-maximal activity (AC50) in experiment [1] was determined as 317 nM. Further, the half-inhibitory concentration (IC50) in experiment [2] worked out at 17800 nM.

Consider `COc1cccc(-c2nn(C)cc2-c2cc(C)nc3[nH]ncc23)n1` [Example 34, 4-(3-(6-Methoxypyridin-2-yl)-1-methyl-1H-pyrazol-4-yl)-6-methyl-1H-pyrazolo[3,4-b]pyridine], for which the half-maximal activity concentration (AC50) in experiment [1] came out at 100 nM. In experiment [2], the 50% inhibitory concentration (IC50) worked out at 1980 nM.

For the molecule `Cn1cc(-c2ccnc3[nH]ccc23)c(-c2ccc(OC(F)F)cn2)n1` [Example 35, 4-[3-[5-(Difluoromethoxy)-2-pyridyl]-1-methyl-pyrazol-4-yl]-1H-pyrrolo[2,3-b]pyridine], the AC50 in experiment [1] was 9180 nM. Further, the 50% inhibitory concentration (IC50) in experiment [2] was > 10000 nM.

Turning to `Cn1cc(-c2ccnc3[nH]ccc23)c(-c2ccc(OC(F)(F)F)cn2)n1` [Example 36, 4-[1-Methyl-3-[5-(trifluoromethoxy)-2-pyridyl]pyrazol-4-yl]-1H-pyrrolo[2,3-b]pyridine], the concentration at half-maximal activity (AC50) in experiment [1] was determined as 6480 nM. Moreover, the half-maximal inhibitory concentration (IC50) in experiment [2] was > 10000 nM.

In the case of `Cn1cc(-c2ccnc3[nH]ccc23)c(-c2ncc(F)cc2F)n1` [Example 37, 4-[3-(3,5-Difluoro-2-pyridyl)-1-methyl-pyrazol-4-yl]-1H-pyrrolo[2,3-b]pyridine], the AC50 in experiment [1] came out at 15 nM. Also, in experiment [2], the IC50 is 78 nM.

For `Cn1cc(-c2ccnc3[nH]ncc23)c(-c2ncc(F)cc2F)n1` [Example 38, 4-(3-(3,5-Difluoropyridin-2-yl)-1-methyl-1H-pyrazol-4-yl)-1H-pyrazolo[3,4-b]pyridine], in experiment [1], the concentration at half-maximal activity (AC50) worked out at 46 nM. Further, the half-inhibitory concentration (IC50) in experiment [2] worked out at 390 nM.

As to `Cc1cc(-c2cn(C)nc2-c2ccc(Cl)c(C)n2)c2cn[nH]c2n1` [Example 39, 4-(3-(5-Chloro-6-methylpyridin-2-yl)-1-methyl-1H-pyrazol-4-yl)-6-methyl-1H-pyrazolo[3,4-b]pyridine], in experiment [1], the AC50 worked out at 128 nM. The 50% inhibitory concentration (IC50) in experiment [2] was 3250 nM.

As for `Cc1cc(-c2cn(C)nc2-c2ccc(F)c(C)n2)c2cn[nH]c2n1` [Example 40, 4-(3-(5-Fluoro-6-methylpyridin-2-yl)-1-methyl-1H-pyrazol-4-yl)-6-methyl-1H-pyrazolo[3,4-b]pyridine], the AC50 in experiment [1] worked out at 19 nM. Further, the IC50 in experiment [2] was 288 nM.

With `COc1nc(-c2nn(C)cc2-c2cc(C)nc3[nH]ncc23)ccc1F` [Example 41, 4-(3-(5-Fluoro-6-methoxypyridin-2-yl)-1-methyl-1H-pyrazol-4-yl)-6-methyl-1H-pyrazolo[3,4-b]pyridine], the AC50 in experiment [1] amounted to 107 nM. Besides, the IC50 in experiment [2] stood at 5000 nM.

For the molecule `COc1nc(-c2nn(C)cc2-c2cc(C)nc3[nH]ncc23)ccc1Cl` [Example 42, 4-(3-(5-Chloro-6-methoxypyridin-2-yl)-1-methyl-1H-pyrazol-4-yl)-6-methyl-1H-pyrazolo[3,4-b]pyridine], the AC50 in experiment [1] came out at 134 nM. For the same molecule, in experiment [2], the IC50 was found to be 2770 nM.

For the molecule `Cn1cc(-c2ccnc3[nH]ccc23)c(-c2ncc(F)cn2)n1` [Example 43, 4-[3-(5-Fluoropyrimidin-2-yl)-1-methyl-pyrazol-4-yl]-1H-pyrrolo[2,3-b]pyridine], the AC50 in experiment [1] turned out to be 31 nM. The half-maximal inhibitory concentration (IC50) in experiment [2] was 268 nM.

With `Cn1cc(-c2ccnc3[nH]ccc23)c(-c2ccncn2)n1` [Example 44, 4-(1-Methyl-3-pyrimidin-4-yl-pyrazol-4-yl)-1H-pyrrolo[2,3-b]pyridine], the AC50 in experiment [1] was found to be 54 nM. The IC50 in experiment [2] is 469 nM.

For `Cn1cc(-c2ccnc3[nH]ccc23)c(-c2cncnc2)n1` [Example 45, 4-(1-Methyl-3-pyrimidin-5-yl-pyrazol-4-yl)-1H-pyrrolo[2,3-b]pyridine], the concentration at half-maximal activity (AC50) in experiment [1] turned out to be 746 nM. The IC50 in experiment [2] was > 10000 nM.

Take `Cn1cc(-c2ccnc3[nH]ccc23)c(-c2cnccn2)n1` [Example 46, 4-(1-Methyl-3-pyrazin-2-yl-pyrazol-4-yl)-1H-pyrrolo[2,3-b]pyridine]: the AC50 in experiment [1] turned out to be 84 nM. The IC50 in experiment [2] turned out to be 2190 nM.

`Cc1cnc(-c2nn(C)cc2-c2ccnc3[nH]ccc23)cn1` [Example 47, 4-[1-Methyl-3-(5-methylpyrazin-2-yl)pyrazol-4-yl]-1H-pyrrolo[2,3-b]pyridine]: the AC50 in experiment [1] came to 346 nM. In addition, the IC50 in experiment [2] is > 10000 nM.

For the molecule `Cn1cc(-c2ccnc3[nH]ccc23)c(-c2cccnn2)n1` [Example 48, 4-(1-Methyl-3-pyridazin-3-yl-pyrazol-4-yl)-1H-pyrrolo[2,3-b]pyridine], the AC50 in experiment [1] came to 39 nM. Moreover, in experiment [2], the IC50 is 3470 nM.

Regarding `Cn1cc(-c2ccnc3[nH]ccc23)c(-c2ccnnc2)n1` [Example 49, 4-(1-Methyl-3-pyridazin-4-yl-pyrazol-4-yl)-1H-pyrrolo[2,3-b]pyridine], the AC50 in experiment [1] was 451 nM. Further, the IC50 in experiment [2] is > 10000 nM.

For the molecule `Cc1cc(-c2cn(CC3COC3)nc2-c2ccc(F)cn2)c2cn[nH]c2n1` [Example 50, 4-[3-(5-Fluoro-2-pyridyl)-1-(oxetan-3-ylmethyl)pyrazol-4-yl]-6-methyl-1H-pyrazolo[3,4-b]pyridine], in experiment [1], the concentration at half-maximal activity (AC50) worked out at 5 nM. In addition, the IC50 in experiment [2] came out at 122 nM.

With `Cc1c(-c2ccnc3[nH]ccc23)c(-c2ccc(F)cn2)nn1C` [Example 51, 4-(3-(5-Fluoropyridin-2-yl)-1,5-dimethyl-1H-pyrazol-4-yl)-1H-pyrrolo[2,3-b]pyridine], the AC50 in experiment [1] worked out at 5 nM. For the same molecule, the IC50 in experiment [2] amounted to 28 nM.

In the case of `Cn1nc(-c2ccc(F)cn2)c(-c2ccnc3[nH]ccc23)c1C1CCC1` [Example 52, 4-(5-Cyclobutyl-3-(5-fluoropyridin-2-yl)-1-methyl-1H-pyrazol-4-yl)-1H-pyrrolo[2,3-b]pyridine], the AC50 in experiment [1] amounted to 13 nM. Further, in experiment [2], the half-inhibitory concentration (IC50) was found to be 227 nM.

`Cn1cc(-c2ccnc3[nH]ccc23)c(-c2cccnc2)n1` [Example 53, 4-[1-Methyl-3-(3-pyridyl)pyrazol-4-yl]-1H-pyrrolo[2,3-b]pyridine]: in experiment [1], the concentration at half-maximal activity (AC50) was found to be 68 nM. The half-inhibitory concentration (IC50) in experiment [2] was found to be 359 nM.
